# In patent US10022376B2 (Pfizer Inc., priority 2014, dated 2018):
# Test system: rhIFNγ stimulated STAT-3 phosphorylation in the A549 human epithelial cell line
# Assay: A549 Cell Assay: Inhibition of pSTAT3
# Assay type: cell-based
# Details: A549 cells
# Method: A549 Cell Assay: Inhibition of pSTAT3
# An assay measuring the efficacy of JAK inhibitors on the functional response of recombinant human interferon γ (rhIFNγ) stimulated STAT-3 phosphorylation in the A549 human epithelial cell line.
# A549 cells (ATCC #CCL-185), were plated at 30,000 cells/well in 96 well flat bottomed tissue culture plates (BD#353072) in 200 μL of growth medium (DMEM, Pfizer media prep, with 10% Fetal Bovine Serum, Sigma #F4135, 2 mM L-Glutamine, Pfizer media prep, 100 U/mL penicillin, Pfizer media prep, and 200 μg/ml streptomycin, Pfizer media prep), and cultured at 37° C., 5% CO2 incubator for 18 hours. Growth medium was removed by vacuum aspiration (V&P Scientific #vp187 bp-60), and 90 μL of pre-warmed assay medium (DMEM with 0.2% BSA, Miltenyi #130-091-376) was added to each well and incubated for 15 minutes at 37° C. 10 μL of vehicle control or test compound (final concentration range of 0.3 nM to 10 μM with 0.1% DMSO) was added to the cells. Plates were incubated at 37° C. for 1 hour. After compound incubation, 10 μL of 220 ng/mL recombinant human IFNγ (R&D Systems #285-IF, final rhIFNγ concentration of 20 ng/mL) was added to the cells and plates were incubated for 30 minutes at 37° C. Wells containing A549 cells, medium with 0.1% DMSO and no rhIFNγ were used as background controls. After rhIFNγ stimulation, media was aspirated from each well and 35 μL/well of iced-cold MSD lysis buffer containing protease and phosphatase inhibitors from Phospho-STAT3 Tyr705 assay kit (Meso-Scale Discovery #K150DID) was added to each well. Plates were incubated at 4° C. with shaking for 30 minutes. Cell lysates were assayed following the MSD Phospho-STAT3 Tyr705 assay kit protocol to detect pSTAT3.
# Data were collected and transformed into percent inhibition and calculated using the following formula: […]
Compound,IC50 (Homo sapiens) [nM],IC50 [nM]
"CNC(=O)c1n[nH]c2cc(-c3cc(F)c(O)cc3CC(F)(F)F)nc(NCc3ccccc3N(C)S(=O)(=O)c3cccnc3)c12 [Example 68, 6-[5-fluoro-4-hydroxy-2-(2,2,2-trifluoroethyl)phenyl]-N-methyl-4-({2-[methyl(pyridin-3-ylsulfonyl)amino]benzyl}amino)-1H-pyrazolo[4,3-c]pyridine-3-carboxamide]",43.9,
"CNC(=O)c1n[nH]c2cc(-c3cc(F)c(O)cc3CC(F)(F)F)nc(NCc3ccccc3N(C)S(=O)(=O)c3ccc(C)nc3)c12 [Example 69, 6-[5-fluoro-4-hydroxy-2-(2,2,2-trifluoroethyl)phenyl]-N-methyl-4-[(2-{methyl[(6-methylpyridin-3-yl)sulfonyl]amino}benzyl)amino]-1H-pyrazolo[4,3-c]pyridine-3-carboxamide]",91.6,
"Cc1ccc(S(=O)(=O)N(C)c2ccccc2CNc2nc(-c3cc(F)c(O)cc3CC(F)(F)F)cc3[nH]nc(C(N)=O)c23)cn1 [Example 70, 6-[5-fluoro-4-hydroxy-2-(2,2,2-trifluoroethyl)phenyl]-4-[(2-{methyl[(6-methylpyridin-3-yl)sulfonyl]amino}benzyl)amino]-1H-pyrazolo[4,3-c]pyridine-3-carboxamide]",46.2,
"CCN(c1ncc(Cl)cc1CNc1nc(-c2cc(F)c(O)cc2CC(F)(F)F)cc2[nH]nc(C(N)=O)c12)S(C)(=O)=O [Example 71, 4-[({5-chloro-2-[ethyl(methylsulfonyl)amino]pyridin-3-yl}methyl)amino]-6-[5-fluoro-4-hydroxy-2-(2,2,2-trifluoroethyl)phenyl]-1H-pyrazolo[4,3-c]pyridine-3-carboxamide]",110,
"CN(c1ncc(Cl)cc1CNc1nc(-c2cc(F)c(O)cc2CC(F)(F)F)cc2[nH]nc(C(N)=O)c12)S(C)(=O)=O [Example 72, 4-[({5-chloro-2-[methyl(methylsulfonyl)amino]pyridin-3-yl}methyl)amino]-6-[5-fluoro-4-hydroxy-2-(2,2,2-trifluoroethyl)phenyl]-1H-pyrazolo[4,3-c]pyridine-3-carboxamide]",94.1,
"CCc1cc(O)c(F)cc1-c1cc2[nH]nc(C(=O)NC)c2c(NCc2ccccc2N(C)S(N)(=O)=O)n1 [Example 73, 6-(2-ethyl-5-fluoro-4-hydroxyphenyl)-N-methyl-4-({2-[methyl(sulfamoyl)amino]benzyl}amino)-1H-pyrazolo[4,3-c]pyridine-3-carboxamide]",35.6,
"CN(c1ncc(F)cc1CNc1nc(-c2cc(F)c(O)cc2CC(F)(F)F)cc2[nH]nc(C(N)=O)c12)S(C)(=O)=O [Example 78, 6-[5-Fluoro-4-hydroxy-2-(2,2,2-trifluoroethyl)phenyl]-4-[({5-fluoro-2-[methyl(methyl-sulfonyl)amino]pyridin-3-yl}methyl)amino]-1H-pyrazolo[4,3-c]pyridine-3-carboxamide]",27.2,
"CCN(c1ncc(F)cc1CNc1nc(-c2cc(F)c(O)cc2CC(F)(F)F)cc2[nH]nc(C(N)=O)c12)S(C)(=O)=O [Example 79, 4-[({2-[ethyl(methylsulfonyl)amino]-5-fluoropyridin-3-yl}methyl)amino]-6-[5-fluoro-4-hydroxy-2-(2,2,2-trifluoroethyl)phenyl]-1H-pyrazolo[4,3-c]pyridine-3-carboxamide]",30.7,
"CCN(c1nccnc1CNc1nc(-c2cc(F)c(O)cc2CC(F)(F)F)cc2[nH]nc(C(N)=O)c12)S(C)(=O)=O [Example 80, 4-[({3-[ethyl(methylsulfonyl)amino]pyrazin-2-yl}methyl)amino]-6-[5-fluoro-4-hydroxy-2-(2,2,2-trifluoroethyl)phenyl]-1H-pyrazolo[4,3-c]pyridine-3-carboxamide]",197,
"CCN(c1ccccc1CNc1nc(-c2cc(F)c(O)cc2CC(F)(F)F)cc2[nH]nc(C(N)=O)c12)S(=O)(=O)CC [Example 82, 4-((2-(N-ethylethylsulfonamido)benzyl)amino)-6-(5-fluoro-4-hydroxy-2-(2,2,2-trifluoroethyl)phenyl)-1H-pyrazolo[4,3-c]pyridine-3-carboxamide]",20.9,
"CCN(c1ccc(F)cc1CNc1nc(-c2cc(F)c(O)cc2CC(F)(F)F)cc2[nH]nc(C(N)=O)c12)S(C)(=O)=O [Example 83, 4-((2-(N-ethylmethylsulfonamido)-5-fluorobenzyl)amino)-6-(5-fluoro-4-hydroxy-2-(2,2,2-trifluoroethyl)phenyl)-1H-pyrazolo[4,3-c]pyridine-3-carboxamide]",30,
"CCN(c1ccc(Cl)cc1CNc1nc(-c2cc(F)c(O)cc2CC(F)(F)F)cc2[nH]nc(C(N)=O)c12)S(C)(=O)=O [Example 84, 4-((5-chloro-2-(N-ethylmethylsulfonamido)benzyl)amino)-6-(5-fluoro-4-hydroxy-2-(2,2,2-trifluoroethyl)phenyl)-1H-pyrazolo[4,3-c]pyridine-3-carboxamide]",32.9,
"CCS(=O)(=O)N(C)c1ccccc1CNc1nc(-c2cc(F)c(O)cc2CC(F)(F)F)cc2[nH]nc(C(N)=O)c12 [Example 85, 6-(5-fluoro-4-hydroxy-2-(2,2,2-trifluoroethyl)phenyl)-4-((2-(N-methylethylsulfonamido)benzyl)amino)-1H-pyrazolo[4,3-c]pyridine-3-carboxamide]",12.9,
"CCN(c1ncc(C)cc1CNc1nc(-c2cc(F)c(O)cc2CC(F)(F)F)cc2[nH]nc(C(N)=O)c12)S(C)(=O)=O [Example 87, 4-[({2-[ethyl(methylsulfonyl)amino]-5-methylpyridin-3-yl}methyl)amino]-6-[5-fluoro-4-hydroxy-2-(2,2,2-trifluoroethyl)phenyl]-1H-pyrazolo[4,3-c]pyridine-3-carboxamide]",213,
"CN(c1ccc(F)cc1CNc1nc(-c2cc(F)c(O)cc2CC(F)(F)F)cc2[nH]nc(C(N)=O)c12)S(C)(=O)=O [Example 88, 6-[5-fluoro-4-hydroxy-2-(2,2,2-trifluoroethyl)phenyl]-4-({5-fluoro-2-[methyl(methylsulfonyl)amino]benzyl}amino)-1H-pyrazolo[4,3-c]pyridine-3-carboxamide]",31.5,
"CN(c1ccc(Cl)cc1CNc1nc(-c2cc(F)c(O)cc2CC(F)(F)F)cc2[nH]nc(C(N)=O)c12)S(C)(=O)=O [Example 89, 4-({5-chloro-2-[methyl(methylsulfonyl)amino]benzyl}amino)-6-[5-fluoro-4-hydroxy-2-(2,2,2-trifluoroethyl)phenyl]-1H-pyrazolo[4,3-c]pyridine-3-carboxamide]",46.3,
"CCN(c1ccccc1CNc1nc(-c2cc(F)c(O)cc2CC(F)(F)F)cc2[nH]nc(C(N)=O)c12)S(C)(=O)=O [Example 90, 4-({2-[ethyl(methylsulfonyl)amino]benzyl}amino)-6-[5-fluoro-4-hydroxy-2-(2,2,2-trifluoroethyl)phenyl]-1H-pyrazolo[4,3-c]pyridine-3-carboxamide]",30.4,
"CCN(c1ccc(C)cc1CNc1nc(-c2cc(F)c(O)cc2CC(F)(F)F)cc2[nH]nc(C(N)=O)c12)S(C)(=O)=O [Example 91, 4-({2-[ethyl(methylsulfonyl)amino]-5-methylbenzyl}amino)-6-[5-fluoro-4-hydroxy-2-(2,2,2-trifluoroethyl)phenyl]-1H-pyrazolo[4,3-c]pyridine-3-carboxamide]",26.3,
CNC(=O)c1n[nH]c2nc(-c3cc(F)c(O)cc3CC(F)(F)F)nc(NCc3ccccc3N(C)S(C)(=O)=O)c12 [Example 94],,126
"CCc1cc(O)c(F)cc1-c1nc(NCc2ccccc2N(C)S(=O)(=O)c2ccccc2)c2c(C(N)=O)n[nH]c2n1 [Example 95, 6-(2-Ethyl-5-fluoro-4-hydroxyphenyl)-4-((2-(N-methylphenylsulfonamido)benzyl)amino)-1H-pyrazolo[3,4-d]pyrimidine-3-carboxamide]",59.9,
"CN(c1ccccc1CNc1nc(-c2cc(F)c(O)cc2CC(F)(F)F)nc2[nH]nc(C(N)=O)c12)S(=O)(=O)c1ccccc1 [Example 96, 6-(5-Fluoro-4-hydroxy-2-(2,2,2-trifluoroethyl)phenyl)-4-((2-(N-methylphenylsulfonamido)benzyl)amino)-1H-pyrazolo[3,4-d]pyrimidine-3-carboxamide]",2870,
"CN(c1ccc(O)cc1CNc1nc(-c2cc(F)c(O)cc2CC(F)(F)F)nc2[nH]nc(C(=O)Nc3ccc(NCCO)nc3)c12)S(C)(=O)=O [Example 99, 6-(5-Fluoro-4-hydroxy-2-(2,2,2-trifluoroethyl)phenyl)-4-((5-hydroxy-2-(N-methylmethylsulfonamido)benzyl)amino)-N-(6-((2-hydroxyethyl)amino)pyridin-3-yl)-1H-pyrazolo[3,4-d]pyrimidine-3-carboxamide]",2470,
"CS(=O)(=O)N(CCO)c1ccccc1CNc1nc(-c2cc(F)c(O)cc2CC(F)(F)F)nc2[nH]nc(C(N)=O)c12 [Example 101, 6-(5-fluoro-4-hydroxy-2-(2,2,2-trifluoroethyl)phenyl)-4-((2-(N-(2-hydroxyethyl)methyl-sulfonamido)benzyl)amino)-1H-pyrazolo[3,4-d]pyrimidine-3-carboxamide]",> 10000,
